Test results reported in patent US6350909B1, “Methoxymino-phenylacetamide derivatives and their utilization as pesticides” (Bayer Aktiengesellschaft, priority 1998, dated 2002).

| melting point | Compound |
| --- | --- |
| 92 °C (dec.) | CON=C(C(=O)NC(=O)CCl)c1ccccc1CO/N=C(\C)c1ccc(C(F)(F)F)cc1 [Example 2, 2-chloro-N-(methoxyimino-{2-[1-(4-trifluoromethylphenyl)-ethylideneaminooxymethyl]-phenyl}-acetyl)-acetamide] |
| 134 to 138 °C | COCC(=O)NC(=O)C(=NOC)c1ccccc1CO/N=C(\C)c1ccc(C(F)(F)F)cc1 [Example 1, 2-methoxy-N-(methoxyimino-{2-[1-(4-trifluoromethylphenyl)-ethylideneaminooxymethyl]-phenyl}-acetyl)-acetamide] |
